Tests used:
[1] = tested on: giant foxtail; experiment: Test A pre-/postemergence greenhouse test; type: in vivo, Setaria faberi; settings: for Plant response rating, Foxtail, Giant: 0 to 100 scale where 0 is no effect and 100 is complete control; for Foxtail, Giant plant response rating: 0 to 100 scale
Method in brief: (§1)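 Sowing in loam/sand; same-day pre (directed soil spray) and post (foliar, 1–2 leaf, 2–10 cm) treatment with surfactant-containing non-phytotoxic solvent formulation; ~10 days in greenhouse; eye-scored injury against untreated plants.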

[2] = tested on: redroot pigweed; experiment: Test A pre-/postemergence greenhouse test; type: in vivo, Amaranthus retroflexus; settings: for Plant response rating, Pigweed: 0 to 100 scale where 0 is no effect and 100 is complete control; for Pigweed plant response rating: 0 to 100 scale
Method in brief: as §1

[3] = tested on: velvetleaf; experiment: Test A pre-/postemergence greenhouse test; type: in vivo, Abutilon theophrasti; settings: for Plant response rating, Velvetleaf: 0 to 100 scale where 0 is no effect and 100 is complete control; for Velvetleaf plant response rating: 0 to 100 scale
Method in brief: as §1

[4] = tested on: wheat; experiment: Test A pre-/postemergence greenhouse test; type: in vivo, Triticum aestivum; settings: for Plant response rating, Wheat: 0 to 100 scale where 0 is no effect and 100 is complete control; for Wheat plant response rating: 0 to 100 scale
Method in brief: as §1

[5] = tested on: corn; experiment: Test A pre-/postemergence greenhouse test; type: in vivo, Zea mays; settings: for Plant response rating, Corn: 0 to 100 scale where 0 is no effect and 100 is complete control; for Corn plant response rating: 0 to 100 scale
Method in brief: as §1

[6] = tested on: wild oat; experiment: Test C pre-/postemergence test; type: in vivo, Avena fatua
Method in brief: (§2)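 Test chemicals were formulated with surfactant in a non-phytotoxic solvent and sprayed both on freshly planted seeds (preemergence) and on 1- to 4-leaf plants of 2–18 cm (postemergence). Flooded-paddy pots received compound directly into 3 cm of standing water, maintained for the test.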

[7] = tested on: bermudagrass; experiment: Test C pre-/postemergence test; type: in vivo, Cynodon dactylon
Method in brief: as §2

[8] = tested on: Surinam grass; experiment: Test C pre-/postemergence test; type: in vivo, Brachiaria decumbens
Method in brief: as §2

[9] = tested on: giant foxtail; experiment: Test C pre-/postemergence test; type: in vivo, Setaria faberii
Method in brief: as §2

[10] = tested on: Goosegrass; experiment: Test C pre-/postemergence test; type: in vivo, Eleusin indica
Method in brief: as §2

[11] = tested on: johnsongrass; experiment: Test C pre-/postemergence test; type: in vivo, Sorghum halepense
Method in brief: as §2

[12] = tested on: lambsquarters; experiment: Test C pre-/postemergence test; type: in vivo, Chenopodium album
Method in brief: as §2

[13] = tested on: eastern black nightshade; experiment: Test C pre-/postemergence test; type: in vivo, Solanum ptycanthum; settings: for Nightshade plant response rating: preemergence, scale 0 (no effect) to 100 (complete control)
Method in brief: as §2

[14] = tested on: common ragweed; experiment: Test C pre-/postemergence test; type: in vivo, Ambrosia elation
Method in brief: as §2

[15] = tested on: velvetleaf; experiment: Test C pre-/postemergence test; type: in vivo, Abutilon theophrasti
Method in brief: as §2

[16] = tested on: rice; experiment: Test C flooded paddy test; type: in vivo, Oryza sativa; settings: Flood, scale 0 to 100, 0 no effect, 100 complete control, 13 to 15 days
Method in brief: (§3)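 Flooded 3 cm over soil; compound into paddy water; depth kept constant. Greenhouse 13–15 d.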

[17] = tested on: duck salad; experiment: Test C flooded paddy test; type: in vivo, Heteranthera limosa; settings: Flood, scale 0 to 100, 0 no effect, 100 complete control, 13 to 15 days
Method in brief: as §3

[18] = tested on: barnyardgrass; experiment: Test C flooded paddy test; type: in vivo, Echinochloa crus-galli; settings: Flood, scale 0 to 100, 0 no effect, 100 complete control, 13 to 15 days
Method in brief: as §3

[19] = Postemergence, 500 g ai/ha, 0 is no effect, 100 is complete control
[20] = Preemergence, 125 g ai/ha, 0 no effect, 100 complete control
[21] = 62 g ai/ha, Preemergence, scale 0 to 100
[22] = 125 g ai/ha, preemergence, scale 0 (no effect) to 100 (complete control)
[23] = Preemergence, 31 g ai/ha, scale 0 to 100 (0 no effect, 100 complete control)
[24] = preemergence, 250 g ai/ha, scale 0 (no effect) to 100 (complete control)

Cn1nc(C(F)(F)F)c(C(Cl)S(=O)(=O)c2cccc[n+]2[O-])c1OC(F)F (centres unmarked) [Compound 51]
20: Corn plant response rating [5, 19]
25: Plant response rating, Rice ([16]; 62 g ai/ha)
35: Plant response rating, Ducksalad ([17]; 62 g ai/ha)
50: Plant response rating, Foxtail, Giant ([1]; Postemergence, 125 g ai/ha) | Plant response rating, Wheat ([4]; Preemergence, 500 g ai/ha) | Oat, Wild plant response rating [6, 24] | Foxtail, Giant plant response rating [9, 21] | Velvetleaf plant response rating [15, 22] | Plant response rating, Barnyardgrass ([18]; 250 g ai/ha)
70: Pigweed plant response rating [2, 19] | Velvetleaf plant response rating [3, 19] | Plant response rating, Velvetleaf ([3]; Preemergence, 500 g ai/ha)
0: Plant response rating, Corn ([5]; Postemergence, 125 g ai/ha) | Corn plant response rating [5, 20] | Plant response rating, Corn ([5]; Preemergence, 500 g ai/ha) | Oat, Wild plant response rating [6, 21] | Plant response rating, Oat, Wild [6, 23] | Plant response rating, Nightshade [13, 23] | Ragweed plant response rating [14, 21] | Plant response rating, Ragweed [14, 23] | Velvetleaf plant response rating [15, 21] | Plant response rating, Velvetleaf [15, 23] | Plant response rating, Barnyardgrass ([18]; 62 g ai/ha)
95: Johnsongrass plant response rating [11, 21]
75: Plant response rating, Johnsongrass [11, 23]
90: Foxtail, Giant plant response rating [1, 19] | Plant response rating, Bermudagrass [7, 23] | Foxtail, Giant plant response rating [9, 22]
100: Foxtail, Giant plant response rating [1, 20] | Plant response rating, Foxtail, Giant ([1]; Preemergence, 500 g ai/ha) | Pigweed plant response rating [2, 20] | Plant response rating, Pigweed ([2]; Preemergence, 500 g ai/ha) | Bermudagrass plant response rating ([7]; 62 g ai/ha, Preemergence, scale 0 to 100 (0 no effect, 100 complete control)) | Bermudagrass plant response rating [7, 22] | Bermudagrass plant response rating [7, 24] | Surinam Grass plant response rating [8, 24] | Foxtail, Giant plant response rating [9, 24] | Goosegrass plant response rating [10, 21] | Goosegrass plant response rating [10, 22] | Plant response rating, Goosegrass [10, 23] | Goosegrass plant response rating [10, 24] | Johnsongrass plant response rating [11, 24] | Lambsquarters plant response rating [12, 21] | Lambsquarters plant response rating [12, 22] | Plant response rating, Lambsquarters [12, 23] | Lambsquarters plant response rating [12, 24] | Nightshade plant response rating ([13]; 250 g ai/ha)
98: Surinam Grass plant response rating [8, 22] | Johnsongrass plant response rating [11, 22]
30: Wheat plant response rating [4, 20] | Ragweed plant response rating [14, 22]
40: Plant response rating, Wheat ([4]; Postemergence, 125 g ai/ha)
80: Velvetleaf plant response rating [15, 24] | Plant response rating, Ducksalad ([17]; 250 g ai/ha)
85: Nightshade plant response rating ([13]; 125 g ai/ha) | Ragweed plant response rating [14, 24]
55: Plant response rating, Rice ([16]; 250 g ai/ha)
60: Plant response rating, Pigweed ([2]; Postemergence, 125 g ai/ha) | Plant response rating, Velvetleaf ([3]; Postemergence, 125 g ai/ha) | Velvetleaf plant response rating [3, 20] | Wheat plant response rating [4, 19]
10: Oat, Wild plant response rating [6, 22] | Surinam Grass plant response rating [8, 21] | Plant response rating, Surinam Grass [8, 23] | Plant response rating, Foxtail, Giant [9, 23]

Source: patent US20100298141A1, “SUBSTITUTED PYRIDINE N-OXIDE HERBICIDES” (E. I. DU PONT DE NEMOURS AND COMPANY, priority 2007, published 2010)
